# Laboratory results as given in article PMC6941952, “A homogeneous bioluminescent immunoassay to probe cellular signaling pathway regulation” (Communications Biology, 2020).
# Where “and” joins values, the source holds several entries; their conditions need not be identical. Equal values may be shown once.
# Test system: STAT3 Phospho-Tyr705
# Experiment: NanoBiT pSTAT3 cell-based immunoassay in A431 cells
# Parameters: species or system human
# Conditions: IL-6 10 ng/ml; for P-STAT3 (% compared to no inhibitor): replicate
# Experimental: Prior to NanoBiT Cell-Based Immunoassay, 50,000 cells were seeded in 160 µl of complete growth media per well of a 96-well plate and incubated overnight. […] If necessary, the cell culture media were replaced with serum-free media after the cells were stably adherent on the plate and incubated overnight. To treat cells with activators or inhibitors, medium was changed to 30 µl of medium containing inhibitors. If activation of a specific pathway is needed, the cells were stimulated with 10 µl of medium containing activators. To lyse the cells, 10 µl of lysis buffer containing 0.1% digitonin diluted in 1X immunoassay buffer with protease and phosphatase inhibitors was added and the plates were mixed vigorously for 20 min. Then, 50 µl of an antibody mix containing two primary antibodies against the target protein and NanoBiT detecting antibodies (0.3 µl each per well), diluted in 1X immunoassay buffer was added to the lysates. The plates were incubated at 23 °C for 90 min, followed by the addition of 25 µl of Nano-Glo® reagent consisting of Nano-Glo® Luciferase Assay Substrate mixed with 1X immunoassay buffer. Luminescence was measured using a plate-reading luminometer.
# Single dose or dose response inhibitor treatments were performed prior to activation of the pathways as follows. For IκBα, the cells were treated in 30 µl medium with IKK16 or MG132 for 60 min before the addition of 10 µl of DMEM containing appropriate concentration of TNFα. To measure phosphorylation of AKT or STAT3, the corresponding NanoBiT immunoassays were developed with MCF-7 or A431 cells, respectively, according the same scheme used to develop the IκBα assay using the primary antibodies for AKT and STAT3 described in the reagents section. […] Treatment with LY294002 was performed in 30 µl medium and cells were incubated for 60 min before the addition of 1 µM Insulin. To measure STAT3 phosphorylation, A431 cells were incubated overnight in DMEM medium without serum. […] After addition of the stimulators, the cells were incubated for additional times as follows. IκBα phosphorylation and degradation analyses required both time courses and single time points as described in figures. […] The NanoBiT immunoassay protocol was followed as described above.
# All 96-well assay plates were read using a GloMax® 96 Microplate Luminometer from Promega. The instrument was set to 0.5 s integration time. In order to obtain net change of signal, the reagent background values (signal from the well containing all reagent except primary antibodies) were subtracted from the sample values. To plot and analyze the data, Microsoft Excel and GraphPad Prism® Software were used. IC50 values were determined by using a nonlinear regression fit to a sigmoidal dose response (variable slope).
structure (smiles),measurement,setting,value
CN(C)C(=O)/C(C#N)=C/c1ccc(-c2nc3cnc4[nH]ccc4c3n2C2CCCCC2)o1 [FM-381],P-STAT3 (% compared to no inhibitor) Average,inhibitor 0.0190735 nM,105.1%
same,P-STAT3 (% compared to no inhibitor) Average,inhibitor 0.038147 nM,92.2%
same,P-STAT3 (% compared to no inhibitor) Average,inhibitor 0.0762939 nM,92.0%
same,P-STAT3 (% compared to no inhibitor) Average,inhibitor 0.152588 nM,93.2%
same,P-STAT3 (% compared to no inhibitor) Average,inhibitor 0.305176 nM,90.6%
same,P-STAT3 (% compared to no inhibitor) Average,inhibitor 0.610352 nM,92.3%
same,P-STAT3 (% compared to no inhibitor) Average,inhibitor 1.2207 nM,95.1%
same,P-STAT3 (% compared to no inhibitor) Average,inhibitor 2.44141 nM,87.8%
same,P-STAT3 (% compared to no inhibitor) Average,inhibitor 4.88281 nM,94.8%
same,P-STAT3 (% compared to no inhibitor) Average,inhibitor 9.76562 nM,88.5%
same,P-STAT3 (% compared to no inhibitor) Average,inhibitor 19.5312 nM,102.9%
same,P-STAT3 (% compared to no inhibitor) Average,inhibitor 39.0625 nM,94.1%
same,P-STAT3 (% compared to no inhibitor) Average,inhibitor 78.125 nM,88.7%
same,P-STAT3 (% compared to no inhibitor) Average,inhibitor 156.25 nM,85.8%
same,P-STAT3 (% compared to no inhibitor) Average,inhibitor 312.5 nM,74.2%
same,P-STAT3 (% compared to no inhibitor) Average,inhibitor 625 nM,60.8%
same,P-STAT3 (% compared to no inhibitor) Average,inhibitor 2500 nM,22.9%
same,P-STAT3 (% compared to no inhibitor) Average,inhibitor 5000 nM,12.0%
same,P-STAT3 (% compared to no inhibitor) Average,inhibitor 10000 nM,7.8%
same,P-STAT3 (% compared to no inhibitor) Average,inhibitor […],41.3%
same,P-STAT3 Raw data,inhibitor 0.0190735 nM,278100 and 296300 and 285800
same,P-STAT3 Subtract reagent background,inhibitor 0.0190735 nM,177250 and 195450 and 184950
same,P-STAT3 Raw data,inhibitor 0.038147 nM,270700 and 268700 and 257500
same,P-STAT3 Subtract reagent background,inhibitor 0.038147 nM,168850 and 166850 and 155650
same,P-STAT3 Raw data,inhibitor 0.0762939 nM,272300 and 259800 and 258800
same,P-STAT3 Subtract reagent background,inhibitor 0.0762939 nM,172505 and 160005 and 159005
same,P-STAT3 Raw data,inhibitor 0.152588 nM,261700 and 262700 and 269600
same,P-STAT3 Subtract reagent background,inhibitor 0.152588 nM,162310 and 163310 and 170210
same,P-STAT3 Raw data,inhibitor 0.305176 nM,244400 and 266100 and 264700
same,P-STAT3 Subtract reagent background,inhibitor 0.305176 nM,145940 and 167640 and 166240
same,P-STAT3 Raw data,inhibitor 0.610352 nM,253900 and 276500 and 252400
same,P-STAT3 Subtract reagent background,inhibitor 0.610352 nM,156070 and 178670 and 154570
same,P-STAT3 Raw data,inhibitor 1.2207 nM,278300 and 261300 and 251600
same,P-STAT3 Subtract reagent background,inhibitor 1.2207 nM,184135 and 167135 and 157435
same,P-STAT3 Raw data,inhibitor 2.44141 nM,238200 and 252900 and 237300
same,P-STAT3 Subtract reagent background,inhibitor 2.44141 nM,150835 and 165535 and 149935
same,P-STAT3 Raw data,inhibitor 4.88281 nM,243400 and 259600 and 241900
same,P-STAT3 Subtract reagent background,inhibitor 4.88281 nM,162830 and 179030 and 161330
same,P-STAT3 Raw data,inhibitor 9.76562 nM,219800 and 245100 and 214000
same,P-STAT3 Subtract reagent background,inhibitor 9.76562 nM,149750 and 175050 and 143950
same,P-STAT3 Raw data,inhibitor 19.5312 nM,297400 and 269300 and 273700
same,P-STAT3 Subtract reagent background,inhibitor 19.5312 nM,172850 and 196550 and 168450
same,P-STAT3 Raw data,inhibitor 39.0625 nM,266500 and 275400 and 255500
same,P-STAT3 Subtract reagent background,inhibitor 39.0625 nM,153650 and 164650 and 173550
same,P-STAT3 Raw data,inhibitor 78.125 nM,243600 and 255500 and 264900
same,P-STAT3 Subtract reagent background,inhibitor 78.125 nM,165105 and 143805 and 155705
same,P-STAT3 Raw data,inhibitor 156.25 nM,244000 and 250600 and 253000
same,P-STAT3 Subtract reagent background,inhibitor 156.25 nM,153610 and 144610 and 151210
same,P-STAT3 Raw data,inhibitor 312.5 nM,227000 and 243200 and 212500
same,P-STAT3 Subtract reagent background,inhibitor 312.5 nM,114040 and 128540 and 144740
same,P-STAT3 Raw data,inhibitor 625 nM,189200 and 199400 and 224200
same,P-STAT3 Subtract reagent background,inhibitor 625 nM,126370 and 91370 and 101570
same,P-STAT3 Raw data,inhibitor 2500 nM,128000 and 133500 and 120100
same,P-STAT3 Subtract reagent background,inhibitor 2500 nM,32735 and 40635 and 46135
same,P-STAT3 Raw data,inhibitor 5000 nM,101000 and 109100 and 93870
same,P-STAT3 Raw data,inhibitor 10000 nM,84360 and 88520 and 77950
same,P-STAT3 (% compared to no inhibitor),inhibitor 0.0190735 nM,88.0% and 120.5% and 106.8%
same,P-STAT3 (% compared to no inhibitor),inhibitor 0.038147 nM,83.9% and 102.9% and 89.9%
same,P-STAT3 (% compared to no inhibitor),inhibitor 0.0762939 nM,85.7% and 98.6% and 91.8%
same,P-STAT3 (% compared to no inhibitor),inhibitor 0.152588 nM,80.6% and 100.7% and 98.3%
same,P-STAT3 (% compared to no inhibitor),inhibitor 0.305176 nM,72.5% and 103.3% and 96.0%
same,P-STAT3 (% compared to no inhibitor),inhibitor 0.610352 nM,77.5% and 110.1% and 89.2%
same,P-STAT3 (% compared to no inhibitor),inhibitor 1.2207 nM,91.5% and 103.0% and 90.9%
same,P-STAT3 (% compared to no inhibitor),inhibitor 2.44141 nM,74.9% and 102.0% and 86.6%
same,P-STAT3 (% compared to no inhibitor),inhibitor 4.88281 nM,80.9% and 110.4% and 93.1%
same,P-STAT3 (% compared to no inhibitor),inhibitor 9.76562 nM,74.4% and 107.9% and 83.1%
same,P-STAT3 (% compared to no inhibitor),inhibitor 19.5312 nM,95.2% and 115.2% and 98.2%
same,P-STAT3 (% compared to no inhibitor),inhibitor 39.0625 nM,84.6% and 96.5% and 101.2%
same,P-STAT3 (% compared to no inhibitor),inhibitor 78.125 nM,90.9% and 84.3% and 90.8%
same,P-STAT3 (% compared to no inhibitor),inhibitor 156.25 nM,84.6% and 84.8% and 88.2%
same,P-STAT3 (% compared to no inhibitor),inhibitor 312.5 nM,62.8% and 75.3% and 84.4%
same,P-STAT3 (% compared to no inhibitor),inhibitor 625 nM,69.6% and 53.6% and 59.2%
same,P-STAT3 (% compared to no inhibitor),inhibitor 2500 nM,18.0% and 23.8% and 26.9%
same,P-STAT3 (% compared to no inhibitor),inhibitor 5000 nM,7.3% and 12.0% and 16.6%
same,P-STAT3 (% compared to no inhibitor),inhibitor 10000 nM,4.3% and 8.4% and 10.8%
